In ChEMBL document CHEMBL1268963, “Identification of a sulfonoquinovosyldiacylglyceride from Azadirachta indica and studies on its cytotoxic activity and DNA binding properties” (Bioorg Med Chem Lett, 2010):

Experiments:
Calf thymus DNA [1] = test: Binding affinity to calf thymus DNA assessed as exothermic enthalpy at 20 degC by isothermal titration […]; format: nucleic-acid assay; conditions: Bos taurus
Calf thymus DNA [2] = test: Binding affinity to double strand calf thymus DNA assessed as melting temperature; format: nucleic-acid assay; conditions: Bos taurus
MOLT-4 = test: […] in human MOLT4 cells after 24 to 72 hrs by MTT assay; format: functional, cell-based

CCCCCCCCCCCCCCCC(=O)OCC(CO[C@H]1O[C@H](CS(=O)(=O)O)[C@@H](O)[C@H](O)[C@H]1O)OC(=O)CCCCCCCCCCCCCCC (stereo partly drawn)
Ka (Calf thymus DNA [1]): 5.64 ×10⁴ /M | Tm (Calf thymus DNA [2]): 62 °C | IC50 (MOLT-4): 8.3 µM
